Reference: PubChem BioAssay AID2060621 (Molecular Pharmacology Branch, DTP, NCI, 2025)

System: 324938-238-R-J1-PDC complex spheroids viability
Experiment: Anticancer human tumor 324938-238-R-J1-PDC patient-derived bladder carcinoma cell line growth inhibition [CLK]
Conditions: for IC50: curve of first compound; for viability, T/C: stronger effect = lower value
Source text: A high-throughput screen of multi-cell type tumor spheroids was designed to identify active combinations of […] and targeted small molecules. Complex spheroids include a stromal component modeled by human endothelial cells (HUVEC) and fibroblasts modeled by human mesenchymal stem cells (MSCs). The concentration ranges selected for each drug and investigational agent were based upon clinically achievable concentrations if the clinical Cmax of the agent was known.
Compounds. The drugs and investigational agents: cirtuvivint (SM08502; NSC835563), CC-671 (NSC850746), vemurafenib (NSC761431), tapotoclax (NSC804041), sotorasib (NSC818433), adagrasib (NSC831453), MRTX-1133 (NSC836407), BAY2416964 (NSC825713), copanlisib (NSC816437), inavolisib (NSC800729), abemaciclib (NSC768073), osimertinib (NSC779217), entinostat (NSC756642), eltanexor (KPT-8602, NSC794443), venetoclax (NSC766270), ceralasertib (NSC777638), bortezomib (NSC756655), olaparib (NSC753686), talazoparib (NSC767125), alisertib (NSC759677), peposertib (NSC802822), gemcitabine (NSC613327), 5-fluorouracil (NSC19893), SN-38 (NSC673596), oxaliplatin (NSC266046), paclitaxel (NSC125973), and doxorubicin (NSC123127), were obtained from the National Cancer Institute (NCI) Developmental Therapeutics Program Chemical Repository. The FDA-approved anticancer drug set is available from the Developmental Therapeutics Program at https://dtp.cancer.gov/organization/dscb/obtaining/available plates.htm. […] The stock solutions were prepared in dimethyl sulfoxide (DMSO, Sigma-Aldrich, St. Louis, MO, cat. D2650), except for the platinum complexes which were prepared in saline (Quality Biological, Gaithersburg, MD, cat. 114-055-101), at 800-fold the tested concentration and stored at -70 degrees C prior to their use. All drugs and investigational agents were tested over a range starting from a high concentration at or near the clinical Cmax and decreasing in half-log increments. If the clinical Cmax for an agent had not been determined, the highest concentration tested was 10 microM.
Cell Culture. All cells were maintained in an incubator at 37 degrees C and 5% CO2 with 95% humidity. The PDC lines were cultured according to standard operating procedures established by the NCI PDMR. Briefly, all PDCs were thawed and cultured in Matrigel-coated flasks prepared with a working solution of 1X Ham's F-12 nutrient mix, without supplementation (Invitrogen, Waltham, MA, cat. 11765054), 100 U/mL penicillin-streptomycin (Invitrogen, cat. 15140122), and 2.5% Matrigel (Corning Inc., Corning, NY, cat. 354248) for the first three passages. The 947758-054-R-J2-PDC line was cultured in 6B/Colon 1A media, which includes advanced DMEM/F-12 (Thermo Fisher Scientific, cat. 12634028), 10 mM HEPES (Thermo Fisher Scientific, cat. 15630080), 1X GlutaMAX supplement (Thermo Fisher Scientific, cat. 35050061), 0.1 mg/mL primocin (InvivoGen, cat. ant-pm-2), 10% defined fetal bovine serum, heat inactivated (HyClone Laboratories Inc., cat. SH30070.03HI), 1.25 mM N-Acetyl-L-cysteine (Sigma-Aldrich, cat. A9165), 10 mM nicotinamide (Sigma-Aldrich, cat. N0636), 1X B-27 supplement (Thermo Fisher Scientific, cat. 17504044), 1X N-2 supplement (Thermo Fisher Scientific, cat. 17502048), and 10 microM Y-27632 dihydrochloride (Tocris Bioscience, cat. 1254). The 876862-298-R-J1-PDC was cultured in 6E media, which includes all 6B/Colon 1A media components plus 50% L-WRN conditioned media (ATCC, cat. CRL-3276), 50 ng/mL recombinant human EGF recombinant protein (hEGF; Thermo Fisher Scientific, cat. PHG0311), 10 ng/mL recombinant human fibroblast growth factor 10 (hGFG-10; PeproTech, cat. 100-26), 1 ng/mL recombinant human fibroblast growth factor 2 (hFGF-2; PeproTech, cat. 100-18B), and 1 µM prostaglandin E2 (PGE2; Tocris, cat. 2296). The 227483-062-R1-J1-PDC line was cultured in Panc media, containing all 6E components except hFGF-2, with the addition of 500 nM SB-431542 (Selleckchem, cat. S1067) and 10 nM gastrin (Tocris, cat. 3006). […]

[1] = second compound 0.0316 µM, first compound 0.0316 µM
[2] = second compound 0.0316 µM, first compound 0.1 µM
[3] = second compound 0.0316 µM, first compound 0.316 µM
[4] = second compound 0.0316 µM, first compound 1 µM
[5] = second compound 0.1 µM, first compound 0.0316 µM
[6] = second compound 0.1 µM, first compound 0.1 µM
[7] = second compound 0.1 µM, first compound 0.316 µM
[8] = second compound 0.1 µM, first compound 1 µM
[9] = second compound 0.316 µM, first compound 0.0316 µM
[10] = second compound 0.316 µM, first compound 0.1 µM
[11] = second compound 0.316 µM, first compound 0.316 µM
[12] = second compound 0.316 µM, first compound 1 µM
[13] = second compound 1 µM, first compound 0.0316 µM
[14] = second compound 1 µM, first compound 0.1 µM
[15] = second compound 1 µM, first compound 0.316 µM
[16] = second compound 1 µM, first compound 1 µM
[17] = second compound 3.16 µM, first compound 0.0316 µM
[18] = second compound 3.16 µM, first compound 0.1 µM
[19] = second compound 3.16 µM, first compound 0.316 µM
[20] = second compound 3.16 µM, first compound 1 µM
[21] = second compound 10 µM, first compound 0.0316 µM
[22] = second compound 10 µM, first compound 0.1 µM
[23] = second compound 10 µM, first compound 0.316 µM
[24] = second compound 10 µM, first compound 1 µM
[25] = second compound 0.0316 µM, first compound 0.00316 µM
[26] = second compound 0.0316 µM, first compound 0.01 µM
[27] = second compound 0.1 µM, first compound 0.00316 µM
[28] = second compound 0.1 µM, first compound 0.01 µM
[29] = second compound 0.316 µM, first compound 0.00316 µM
[30] = second compound 0.316 µM, first compound 0.01 µM
[31] = second compound 1 µM, first compound 0.00316 µM
[32] = second compound 1 µM, first compound 0.01 µM
[33] = second compound 3.16 µM, first compound 0.00316 µM
[34] = second compound 3.16 µM, first compound 0.01 µM
[35] = second compound 10 µM, first compound 0.00316 µM
[36] = second compound 10 µM, first compound 0.01 µM
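Also: viability read after seven days of drug exposure.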
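For viability, T/C in this document: 100% = DMSO vehicle control wells.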

In the case of `CC(Nc1ccc2c(c1)OCCn1cc(N3C(=O)OCC3C(F)F)nc1-2)C(N)=O` (stereo unspecified) + CN1CCN(c2cc(C(=O)Nc3cc4cc(-c5cnn(C)c5)ccc4cn3)ccn2)CC1, the IC50 (second compound 0.0316 µM) is reported as 167 nM, the IC50 (second compound 0.1 µM) is reported as under 31.6 nM and the IC50 (second compound 0.316 µM) is reported as under 31.6 nM. It also gave an IC50 (second compound 1 µM) of under 31.6 nM, an IC50 (second compound 3.16 µM) of under 31.6 nM and an IC50 (second compound 10 µM) of under 31.6 nM. For the same compound, the viability, T/C [1] was 65.8%, the viability, T/C [2] was 58.5% and the viability, T/C [3] was 40%. The viability, T/C [4] was 29.9%, the viability, T/C (second compound 0.0316 µM, first compound 3.16 µM) was 24.4% and the viability, T/C (second compound 0.0316 µM, first compound 10 µM) was 15.8%. The viability, T/C [5] was 48.2%, the viability, T/C [6] was 40% and the viability, T/C [7] was 29.6%. The viability, T/C [8] was 26.5%, the viability, T/C (second compound 0.1 µM, first compound 3.16 µM) was 23.3% and the viability, T/C (second compound 0.1 µM, first compound 10 µM) was 15.5%. The viability, T/C [9] was 21.3%, the viability, T/C [10] was 20.8% and the viability, T/C [11] was 15.2%. The viability, T/C [12] was 14.1%, the viability, T/C (second compound 0.316 µM, first compound 3.16 µM) was 11.8% and the viability, T/C (second compound 0.316 µM, first compound 10 µM) was 9.85%. It also gave a viability, T/C [13] of 1.49%, a viability, T/C [14] of 2.08% and a viability, T/C [15] of 1.71%. It also gave a viability, T/C [16] of 0.86%, a viability, T/C (second compound 1 µM, first compound 3.16 µM) of 0.52% and a viability, T/C (second compound 1 µM, first compound 10 µM) of 0.51%. The viability, T/C [17] was 0.1%, the viability, T/C [18] was 0.15% and the viability, T/C [19] was 0.14%. The viability, T/C [20] was 0.1%, the viability, T/C (second compound 3.16 µM, first compound 3.16 µM) was 0.16% and the viability, T/C (second compound 3.16 µM, first compound 10 µM) was 0.18%. It also gave a viability, T/C [21] of 0.07%, a viability, T/C [22] of 0.14% and a viability, T/C [23] of 0.19%. It also gave a viability, T/C [24] of 0.12%, a viability, T/C (second compound 10 µM, first compound 3.16 µM) of 0.17% and a viability, T/C (second compound 10 µM, first compound 10 µM) of 0.2%.

`CCN1CCN(Cc2ccc(Nc3ncc(F)c(-c4cc(F)c5nc(C)n(C(C)C)c5c4)n3)nc2)CC1` + CN1CCN(c2cc(C(=O)Nc3cc4cc(-c5cnn(C)c5)ccc4cn3)ccn2)CC1 gave an IC50 (second compound 0.0316 µM) of 64.8 nM, an IC50 (second compound 0.1 µM) of 5.84 nM and an IC50 (second compound 0.316 µM) of under 3.16 nM. It also gave an IC50 (second compound 1 µM) of under 3.16 nM, an IC50 (second compound 3.16 µM) of under 3.16 nM and an IC50 (second compound 10 µM) of under 3.16 nM. The viability, T/C [25] was 65%, the viability, T/C [26] was 72.9% and the viability, T/C [1] was 56.3%. It also gave a viability, T/C [2] of 46.5%, a viability, T/C [3] of 34.2% and a viability, T/C [4] of 35.5%. For the same compound, the viability, T/C [27] was 53%, the viability, T/C [28] was 47.2% and the viability, T/C [5] was 42.1%. For the same compound, the viability, T/C [6] was 42.3%, the viability, T/C [7] was 34.2% and the viability, T/C [8] was 31.3%. The viability, T/C [29] was 23.8%, the viability, T/C [30] was 24.7% and the viability, T/C [9] was 25%. The viability, T/C [10] was 25.1%, the viability, T/C [11] was 28.2% and the viability, T/C [12] was 31.1%. The viability, T/C [31] was 1.45%, the viability, T/C [32] was 1.54% and the viability, T/C [13] was 1.57%. The viability, T/C [14] was 2.36%, the viability, T/C [15] was 1.73% and the viability, T/C [16] was 0.69%. The viability, T/C [33] was 0.12%, the viability, T/C [34] was 0.84% and the viability, T/C [17] was 0.19%. For the same compound, the viability, T/C [18] was 0.14%, the viability, T/C [19] was 0.32% and the viability, T/C [20] was 0.84%. The viability, T/C [35] was 0.09%, the viability, T/C [36] was 0.19% and the viability, T/C [21] was 0.2%. The viability, T/C [22] was 0.11%, the viability, T/C [23] was 0.15% and the viability, T/C [24] was 0.2%.

With `COc1c(OCCCN2CCOCC2)ccc2c3n(c(=NC(=O)c4cnc(N)nc4)nc12)CCN3` + CN1CCN(c2cc(C(=O)Nc3cc4cc(-c5cnn(C)c5)ccc4cn3)ccn2)CC1 the IC50 (second compound 0.0316 µM) was 17.3 nM, the IC50 (second compound 0.1 µM) was 5.43 nM and the IC50 (second compound 0.316 µM) was under 3.16 nM. For the same compound, the IC50 (second compound 1 µM) was under 3.16 nM, the IC50 (second compound 3.16 µM) was under 3.16 nM and the IC50 (second compound 10 µM) was under 3.16 nM. It also gave a viability, T/C [25] of 76.1%, a viability, T/C [26] of 59.6% and a viability, T/C [1] of 39.2%. It also gave a viability, T/C [2] of 21.2%, a viability, T/C [3] of 7.23% and a viability, T/C [4] of 1.32%. It also gave a viability, T/C [27] of 55.8%, a viability, T/C [28] of 43.5% and a viability, T/C [5] of 29.5%. The viability, T/C [6] was 17.6%, the viability, T/C [7] was 6.5% and the viability, T/C [8] was 1.24%. For the same compound, the viability, T/C [29] was 23.9%, the viability, T/C [30] was 19.4% and the viability, T/C [9] was 15.1%. It also gave a viability, T/C [10] of 8.98%, a viability, T/C [11] of 2.42% and a viability, T/C [12] of 0.55%. For the same compound, the viability, T/C [31] was 2.31%, the viability, T/C [32] was 2.19% and the viability, T/C [13] was 1.42%. The viability, T/C [14] was 0.41%, the viability, T/C [15] was 0.11% and the viability, T/C [16] was 0.13%. The viability, T/C [33] was 0.09%, the viability, T/C [34] was 0.16% and the viability, T/C [17] was 0.14%. It also gave a viability, T/C [18] of 0.07%, a viability, T/C [19] of 0.08% and a viability, T/C [20] of 0.13%. For the same compound, the viability, T/C [35] was 0.05%, the viability, T/C [36] was 0.24% and the viability, T/C [21] was 0.16%. The viability, T/C [22] was 0.09%, the viability, T/C [23] was 0.29% and the viability, T/C [24] was 0.16%.
